These are literature values, as cited in patent US4086220A, “Fragments of secretin” (G. D. Searle & Co., priority 1976, dated 1978).

For this series the following is noted: on a molar basis; parent molecule = intact secretin.

Turning to “Amino acid fragments of the molecule from position 1 to 14: Secretin fragment, positions 1 to 14 (containing the helical portion), reported in literature (Rayford et al.) (HSDGTFTSELSRLR; Secretin; UniProt P09683 28-41, looked up, fragment)”, the “lipolytic activity relative to that of the parent molecule” value is “about 0.5%”.
